Measured values taken from paper PMC12549899 (Nature Communications, 2025).

Assay: Mixing of DMSO master stock into aqueous cryo-EM sample (precipitation)
Assay type: physicochemical
Conditions: 0.2 µL of 2.17 M DMSO stock into 40 µL DrOTOP1 sample, nominal ≤ 10.85 mM, 0.5% DMSO
Procedure: All protein purification steps were performed at 4 °C, and buffers were chilled on ice until use unless otherwise noted. Cell pellets were thawed in a room-temperature water bath and resuspended in Solubilization Buffer (25 mM Tris pH 8.0, 150 mM NaCl, 1% n-dodecyl-β-d-maltoside (DDM), 0.15% cholesteryl hemisuccinate (CHS), […], 1 mM phenylmethylsulfonyl Fluoride (PMSF), 2 µM pepstatin A and 2 mM dithiothreitol (DTT)) and was stirred for 1 – 3 h for detergent solubilization. The lysate was centrifuged at 40,000 × g and the supernatant was collected. […]. Next, the mixture was flowed over a gravity chromatography column, and flowthrough containing GFP-cleaved DrOTOP1 was collected and concentrated in a 100 kDa cutoff centrifugal concentrator (Amicon® Ultra or Pierce™) that was pre-equilibrated with SEC1 Buffer, to 500 µL volume. […] The resulting peaks were analyzed with sodium dodecyl sulfate-polyacrylamide gel electrophoresis (SDS-PAGE), and fractions corresponding to dimeric DrOTOP1 were pooled. […] The resulting peaks were analyzed with SDS-PAGE, and fractions corresponding to dimeric DrOTOP1 in lipid nanodisc were pooled and concentrated to 2 – 5 mg/mL with a 100 kDa cutoff centrifugal concentrator (Amicon® Ultra or Pierce™). […]

Q: Which “Solubility in aqueous buffer” value does the source give for C=C(C)COc1ccccc1NC(=O)c1nc[nH]c1C [C2.2] here?
A: visible precipitation formed
